US20120190701A1, “RENIN INHIBITORS” (Merck Sharp & Dohme Corp., priority 2009, published 2012)
Each block holds one molecule with its values, some of them ahead of it.

Key:
Human recombinant renin = biological target: T1, Human recombinant renin (Homo sapiens, UniProt P00797); assay: Inhibition of human recombinant renin (buffer assay, quenched fluorescent peptide); type: biochemical; conditions: buffer: 50 mM MOPS pH 7.4, 100 mM NaCl, 0.002% Tween 20; 37° C., 3 hours
T1 construct: purchased Proteos
T1 sequence (P00797 67-406): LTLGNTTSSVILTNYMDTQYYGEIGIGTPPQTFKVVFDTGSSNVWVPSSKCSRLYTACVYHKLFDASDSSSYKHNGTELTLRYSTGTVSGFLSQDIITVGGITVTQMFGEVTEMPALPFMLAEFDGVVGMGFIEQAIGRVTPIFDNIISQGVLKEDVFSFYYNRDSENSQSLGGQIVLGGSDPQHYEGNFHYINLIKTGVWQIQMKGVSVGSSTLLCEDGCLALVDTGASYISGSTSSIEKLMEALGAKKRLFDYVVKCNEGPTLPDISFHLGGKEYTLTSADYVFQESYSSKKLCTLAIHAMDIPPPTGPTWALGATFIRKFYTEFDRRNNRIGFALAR
Experimental: Background fluorescence at t=0 is subtracted from the measurement at t=3 hours. Inhibitory activity of the compounds is expressed as IC50.

[1] = biological target: T2, recombinant renin in human plasma (Homo sapiens, UniProt P00797); assay: Inhibition of renin in human plasma (quenched fluorescent peptide); type: biochemical; conditions: human EDTA plasma with 1 nM recombinant renin added; 37° C., 1 hour
T2 construct: purchased Proteos
T2 sequence (P00797 67-406): T1 sequence (P00797 67-406)
Experimental: Human EDTA-collected plasma is rapidly thawed in warm water and centrifuged at 2900 g for 15 minutes at 4° C. The supernatant is collected and recombinant renin (Proteos) is added at a final concentration of 1 nM. […] The plate is incubated at 37° C. for 1 hour. […] Background fluorescence at t=0 is subtracted from the measurement at t=1 hour. Inhibitory activity of the compounds is expressed as IC50.

SMILES: COCCc1cc(C)c(C)c(CN(C(=O)[C@H]2CNCC[C@@]23OCc2cc(F)c(F)cc23)C2CC2)c1 (relative stereo) [Example 45, (cis-1,3′)-N-Cyclopropyl-5,6-difluoro-N-[5-(2-methoxyethyl)-2,3-dimethylbenzyl]-3H-spiro[2-benzofuran-1,4′-piperidine]-3′-carboxamide]
IC50 (Human recombinant renin): 0.1 nM
IC50 [1]: 0.6 nM

SMILES: COCCCc1cc(CCCOC)c(Cl)c(CN(C(=O)[C@H]2CNCC[C@@]23OCc2cc(F)c(F)cc23)C2CC2)c1 (relative stereo) [Example 53]
IC50 (Human recombinant renin): 0.1 nM
IC50 [1]: 1.3 nM

SMILES: COCCCc1cc(CN(C(=O)[C@H]2CNCC[C@@]23OCc2cc(F)c(F)cc23)C2CC2)c2ncccc2c1 (relative stereo) [Example 54, (cis-1,3′)-N-Cyclopropyl-5,6-difluoro-N-{[6-(3-methoxypropyl)-8-quinolinyl]methyl}-3H-spiro[2-benzofuran-1,4′-piperidine]-3′-carboxamide]
IC50 (Human recombinant renin): 0.1 nM
IC50 [1]: 3.5 nM

The next lines start with the values.

IC50 (Human recombinant renin): 0.7 nM
IC50 [1]: 2.3 nM
SMILES: COCCCc1cc(CN(C(=O)[C@H]2CNCC[C@@]23OCc2cc(F)c(F)cc23)C2CC2)c2ccccc2n1 (relative stereo) [Example 48, (cis-1,3′)-N-Cyclopropyl-5,6-difluoro-N-{[2-(3-methoxypropyl)-4-quinolinyl]methyl}-3H-spiro[2-benzofuran-1,4′-piperidine]-3′-carboxamide]

IC50 (Human recombinant renin): 1.2 nM
IC50 [1]: 4.5 nM
SMILES: O=C([C@H]1CNCC[C@@]12OCc1cc(F)c(F)cc12)N(Cc1c[nH]c2cccc(F)c12)C1CC1 (relative stereo) [Example 56, (cis-1,3′)-N-cyclopropyl-5,6-difluoro-N-[(4-fluoro-1H-indol-3-yl)methyl]-3H-spiro[2-benzofuran-1,4′-piperidine]-3′-carboxamide]
